Test results reported in paper PMC10603551 (Oncology Reports, 2023).
Structures can show the parent of a compound that is named as a salt.

Target: T1, STAT5b (Homo sapiens, UniProt P51692)
T1 sequence (P51692 1-787): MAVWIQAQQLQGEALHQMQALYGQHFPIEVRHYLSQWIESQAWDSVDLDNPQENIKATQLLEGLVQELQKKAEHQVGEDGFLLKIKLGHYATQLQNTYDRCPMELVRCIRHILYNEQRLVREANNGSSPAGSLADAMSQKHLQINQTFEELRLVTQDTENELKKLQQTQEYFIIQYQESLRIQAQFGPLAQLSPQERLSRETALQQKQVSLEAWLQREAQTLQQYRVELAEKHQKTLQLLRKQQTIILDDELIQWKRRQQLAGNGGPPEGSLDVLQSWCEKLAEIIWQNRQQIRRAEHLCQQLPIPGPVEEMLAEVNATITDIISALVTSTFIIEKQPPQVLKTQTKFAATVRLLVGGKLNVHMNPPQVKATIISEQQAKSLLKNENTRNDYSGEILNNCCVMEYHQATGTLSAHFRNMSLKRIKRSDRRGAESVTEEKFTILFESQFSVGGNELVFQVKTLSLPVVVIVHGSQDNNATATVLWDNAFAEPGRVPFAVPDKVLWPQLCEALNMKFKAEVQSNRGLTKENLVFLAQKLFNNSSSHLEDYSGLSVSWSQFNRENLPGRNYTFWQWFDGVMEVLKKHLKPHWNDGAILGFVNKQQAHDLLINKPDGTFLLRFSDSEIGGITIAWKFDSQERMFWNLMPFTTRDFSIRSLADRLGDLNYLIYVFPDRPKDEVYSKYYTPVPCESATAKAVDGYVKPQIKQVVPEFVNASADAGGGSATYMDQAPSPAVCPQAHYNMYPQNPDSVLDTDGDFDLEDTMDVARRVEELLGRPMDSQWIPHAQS
Assay type: binding

Ki: 1000 to 3000 nM
SMILES: CC[C@@]1(O)C(=O)OCc2c1cc1n(c2=O)Cc2cc3c(CN(C)C)c(O)ccc3nc2-1 [compound 108, topotecan hydrochloride]
